Three compounds from US10966426B2, “Herbicidal compositions comprising phenylpyrimidines” (BASF SE, priority 2016, dated 2021) can be followed below.

Holding throughout (type): in vivo
One assay concerns BRAPL. Put plainly: greenhouse pre-emergence treatment, BRAPL. Conditions: Table X9, 21 DAT.
Another assay deals with Setaria viridis. The assay is described as follows: greenhouse pre-emergence treatment, SETVI. Conditions: SETVI. The gist of the method:
(§1)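 Damage rated on 0 to 100 scale (0 = normal growth, 100 = no emergence or total above-ground kill) after 2-4 weeks at species-dependent 10-25° C or 20-35° C. Seeds sown per species in loamy sand, ~3.0% humus, treated right after sowing with aqueous spray of single actives or 10% emulsion-concentrate mixtures, then hooded; additive expectation by Colby.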

For another assay, the system named is Bromus sterilis. The assay is described as follows: greenhouse pre-emergence treatment, BROST. Conditions: Bromus sterilis, 480 h, 20 DAT, BROST. The gist of the method:
as §1

The next assay concerns Brachiaria decumbens. Put plainly: greenhouse pre-emergence treatment, BRADC. Conditions: Urochloa decumbens, 480 h, 20 DAT, BRADC. In outline:
as §1

The test system of a further assay is Polygonum convolvulus. Put plainly: greenhouse pre-emergence treatment, POLCO. The note with it: Fallopia convolvulus, 480 h, 20 DAT, POLCO. In outline:
as §1

A further assay concerns Lolium multiflorum. The assay is described as follows: greenhouse pre-emergence treatment, LOLMU. The note with it: Lolium multiflorum, 480 h, 20 DAT, LOLMU. In outline: as §1
The next assay concerns Galium aparine. The assay is described as follows: greenhouse pre-emergence treatment, GALAP. The note with it: Galium aparine, 480 h, solo, EC 800 g/l, GALAP, 500 gai/ha, 20 DAT. The gist of the method: as §1
Another assay has as its system Matricaria chamomilla. Put plainly: greenhouse pre-emergence treatment, MATCH. The note with it: Matricaria chamomilla, 480 h, 20 DAT. The source says: (§2) The culture containers used were plastic pots containing loamy sand with approximately 3.0% of humus as substrate. The seeds of the test plants were sown separately for each species.
(§3) For the pre-emergence treatment, the active compounds, suspended or emulsified in water, were applied directly after sowing by means of finely distributing nozzles. The containers were irrigated gently to promote germination and growth and subsequently covered with transparent plastic hoods until the plants had rooted. This cover caused uniform germination of the test plants unless this was adversely affected by the active compounds.
(§4) Depending on the species, the plants were kept at 10-25° C. and 20-35° C., respectively.
(§5) The test period extended over 2 to 4 weeks. During this time, the plants were tended and their response to the individual treatments was evaluated.
(§6) Evaluation was carried out using a scale from 0 to 100. 100 means no emergence of the plants, or complete destruction of at least the above-ground parts, and 0 means no damage or normal course of growth. A good herbicidal activity is given at values of at least 70, and very good herbicidal activity is given at values of at least 85.
(§7) The respective stated components A and B, and if appropriate, C were formulated as a 10% by weight strength emulsion concentrate and, with addition of the amount of solvent system, introduced into the spray liquor used for applying the active compound. In the examples, the solvent used was water.
(§8) In the examples below, using the method of S. R. Colby (1967) “Calculating synergistic and antagonistic responses of herbicide combinations”, Weeds 15, p. 22ff., the value E, which is expected if the activity of the individual active compounds is only additive, was calculated. E=X+Y−(X·Y/100) where X=effect in percent using herbicide A at an application rate a; • Y=effect in percent using herbicide B at application rate b; • E=expected effect (in %) of herbicide A+herbicide B at application rates a+b.

The subject of another assay is Poa annua. The assay is described as follows: greenhouse pre-emergence treatment, POAAN. Conditions: Poa annua, 480 h, 20 DAT; for inhibition at 500000 µg/mL (stock): sc.
Excerpt: as §2, §3, §4, §5, §6, §7, §8

The test system of a further assay is Papaver rhoeas. Put plainly: greenhouse pre-emergence treatment, PAPRH. The note with it: 20 DAT.
Excerpt: as §2, §3, §4, §5, §6, §7, §8

The test system of the next assay is Avena fatua. The assay is described as follows: greenhouse pre-emergence treatment, AVEFA. The note with it: Avena fatua, 480 h, AVEFA, 20 DAT, solo terbuthylazin (SC 500 g/l) 500 gai/ha. The gist of the method:
as §1

The subject of the next assay is Lolium perenne. Put plainly: greenhouse post-emergence treatment, LOLPE. The note with it: solo terbuthylazin (SC 500 g/l) 125 gai/ha, 20 DAT, 2nd series of rows. As to the method: as §2
To this end, the test plants were either sown directly, and grown in the same containers, or they were first grown separately as seedlings and transplanted into the test containers a few days prior to treatment.
as §4, §5, §6
In the examples, the solvent used was water.
In the examples below, using the method of S. R. Colby (1967) “Calculating synergistic and antagonistic responses of herbicide combinations”, Weeds 15, p. […] E=X+Y−(X·Y/100) where X=effect in percent using herbicide A at an application rate a; • Y=effect in percent using herbicide B at application rate b; • E=expected effect (in %) of herbicide A+herbicide B at application rates a+b.

Another assay has as its system Stellaria media. Put plainly: greenhouse pre-emergence treatment, STEME. The note with it: Stellaria media, 480 h, 20 DAT, solo terbuthylazin (SC 500 g/l) 62.5 gai/ha.
Excerpt: as §2, §3, §4, §5, §6, §7, §8

A further assay has as its system Ambrosia elatior. Put plainly: greenhouse pre-emergence treatment, AMBEL. The note with it: Ambrosia artemisiifolia, 480 h, terbuthylazin solo (SC 500 g/l), 500 gai/ha, 20 DAT, AMBEL. The gist of the method:
as §1

In another assay the test system is Digitaria sanguinalis. Put plainly: greenhouse pre-emergence treatment, DIGSA. Conditions: Digitaria sanguinalis, sc, 480 h, DIGSA, 20 DAT. In outline:
as §1

For another assay, the system named is Alopecurus myosuroides. The assay is described as follows: greenhouse pre-emergence treatment, ALOMY. Conditions: Alopecurus myosuroides, 480 h, 20 DAT, solo terbuthylazin (SC 500 g/l) 250 gai/ha. In outline:
as §1

The next assay has as its system Apera spica-venti. The assay is described as follows: greenhouse pre-emergence treatment, APESV. The note with it: Apera spica-venti, sc, 480 h, 20 DAT. The gist of the method: as §1
The test system of a further assay is Echinocloa crus-galli. The assay is described as follows: greenhouse pre-emergence treatment, ECHCG. Conditions: 20 DAT; for % activity: terbuthylazin solo (SC 500 g/l).
Excerpt: as §2, §3, §4, §5, §6, §7, §8

Where [1] appears, read: prosulfocarb solo 250 gai/ha, read-out: % activity.
The mark [2] stands for this setting: solo terbuthylazin (SC 500 g/l) 250 gai/ha.
Where [3] appears, read: sc, solo terbuthylazin (SC 500 g/l) 250 gai/ha.
Setting [4] is: sc, solo terbuthylazin (SC 500 g/l) 500 gai/ha.
Where [5] appears, read: solo terbuthylazin (SC 500 g/l) 125 gai/ha.
Where [6] appears, read: solo terbuthylazin (SC 500 g/l) 62.5 gai/ha.

Broadly, the pest or weed control is the degree to which the test organism was suppressed or injured, in per cent.

`O=C(Nc1ccc(F)cc1F)c1cccnc1Oc1cccc(C(F)(F)F)c1` [diflufenican]: the “% activity” value is recorded as 0% in the assay with BRAPL (solo diflufenican (SC 500 g/l) 15 gai/ha); 0% with BRAPL (solo diflufenican (SC 500 g/l) 30 gai/ha); 20% in the assay on BRAPL (solo diflufenican (SC 500 g/l) 120 gai/ha); 70% with Setaria viridis (Table X9, 21 DAT, solo diflufenican (SC 500 g/l) 60 gai/ha).

`CCCN(CCC)C(=O)SCc1ccccc1` [prosulfocarb]: the inhibition at 250 g/ha with Bromus sterilis (setting [1]) is 0%; in the assay on Polygonum convolvulus (setting [1]), 0%; in the assay on Lolium multiflorum (prosulfocarb solo 250 gai/ha), 30%; in the assay with Matricaria chamomilla (prosulfocarb solo 250 gai/ha), 0%; with Setaria viridis (Setaria viridis, 480 h, prosulfocarb solo 250 gai/ha, 20 DAT), 40%. Moreover, the inhibition at 500 g/ha with Bromus sterilis (prosulfocarb solo 500 gai/ha) is 40%. Moreover, the inhibition at 1000 g/ha was found to be 50% in the assay on Bromus sterilis (prosulfocarb solo 1000 gai/ha); 80% in the assay with Polygonum convolvulus (prosulfocarb solo 1000 gai/ha); 65% with Matricaria chamomilla (prosulfocarb solo 1000 gai/ha); 70% in the assay with Papaver rhoeas (Papaver rhoeas, 480 h, prosulfocarb solo 1000 gai/ha); 85% in the assay on Setaria viridis (Setaria viridis, 480 h, prosulfocarb solo 1000 gai/ha, 20 DAT). Besides, the % herbicidal activity (weed control, 0-100 scale) at 250 g/ha in the assay on Brachiaria decumbens (prosulfocarb solo 250 gai/ha) is 0%. Moreover, the % herbicidal activity (weed control, 0-100 scale) at 500 g/ha with Brachiaria decumbens (prosulfocarb solo 500 gai/ha) was 20%. The pest or weed control at 500 g/ha in the assay with Galium aparine is 30%. In the assay on Poa annua (prosulfocarb solo 125 gai/ha), the inhibition at 125 g/ha came out at 0%. Also, the “% activity” value was found to be 70% in the assay on Papaver rhoeas (solo, EC 800 g/l, 1000 gai/ha) and 10% in the assay with Setaria viridis (solo, EC 800 g/l, 125 gai/ha, 20 DAT).

Take `CCNc1nc(Cl)nc(NC(C)(C)C)n1` [terbuthylazin, terbuthylazine]: the inhibition at 500000 µg/mL worked out at 0% in the assay with Avena fatua; 65% in the assay with Polygonum convolvulus (setting [4]); 35% in the assay on Lolium multiflorum (setting [4]); 20% in the assay with Digitaria sanguinalis (solo terbuthylazin (SC 500 g/l) 500 gai/ha); 0% with Echinocloa crus-galli (Echinochloa crus-galli, 480 h, solo terbuthylazin (SC 500 g/l) 500 gai/ha). The inhibition at 500000 µg/mL (stock) worked out at 0% in the assay with Bromus sterilis (setting [2]); 0% with Polygonum convolvulus (setting [3]); 70% in the assay with Stellaria media; 0% in the assay with Lolium multiflorum (sc, solo terbuthylazin (SC 500 g/l) 125 gai/ha); 10% in the assay with Lolium multiflorum (setting [3]); 0% with Digitaria sanguinalis (setting [5]). Also, the inhibition at 500000 µg/mL (stock) with Digitaria sanguinalis (setting [2]) amounted to 0%; with Alopecurus myosuroides, 40%; in the assay on Poa annua (setting [6]), 0%; with Poa annua (setting [5]), 30%; with Poa annua (setting [2]), 70%; with Apera spica-venti (setting [6]), 0%. In addition, the inhibition at 500000 µg/mL (stock) with Apera spica-venti (setting [5]) is 50%; in the assay on Setaria viridis (Setaria viridis, 480 h, 20 DAT, solo terbuthylazin (SC 500 g/l) 250 gai/ha), 0%. For the same compound, the pest or weed control at 500000 µg/mL, 500 g/ha came out at 65% with Polygonum convolvulus (terbuthylazin solo (SC 500 g/l), 500 gai/ha) and 65% in the assay on Ambrosia elatior. Moreover, the “% activity” value in the assay on Lolium perenne amounted to 35%; with Setaria viridis (terbuthylazin solo (SC 500 g/l), 62.5 gai/ha, 20 DAT) it was 0%; in the assay with Setaria viridis (terbuthylazin solo (SC 500 g/l), 125 gai/ha, 20 DAT), 0%; in the assay on Setaria viridis (terbuthylazin solo (SC 500 g/l), 250 gai/ha, 20 DAT), 0%; with Echinocloa crus-galli (62.5 gai/ha), 0%; in the assay with Echinocloa crus-galli (125 gai/ha), 0%.
